Measured values reported in patent publication US6887847B2, “Virus derived antimicrobial peptides” (University of Pittsburgh, priority 2001, dated 2005).
Values after ≈ are worked out from the molar mass of the structure shown. Where two headings read alike, the source gives them in different places. Residues, ends and D or L forms follow the SMILES beside them.

What was measured:
[1] = biological target: Ca^2+-saturated calmodulin (Homo sapiens, UniProt P0DP23); conditions: host cell Ca^2+-saturated calmodulin; cited from earlier work
[2] = test system: Staphylococcus aureus; conditions: 1×10^5 colony-forming units; cited from earlier work
[3] = test system: diverse gram-negative and -positive bacterial isolates; conditions: cited from earlier work
[4] = test system: Pseudomonas aeruginosa; assay type: cell-based
From the text: (§1) The assays for growth inhibition of a microbial target can be used to derive a minimum bactericidal concentration (MBC) value for the peptide, i.e., the concentration of peptide required to kill 99.9% of the microbial sample being tested. This value is well known to those in the art as representative of the effectiveness of a particular antimicrobial agent (e.g., an antibiotic) against a particular organism or group of organisms. In assays to detect the MBC of a peptide, growth inhibition of a bacterial population also can be measured with reference to the number of colony forming units (cfu) after exposure to a peptide relative to a control experiment without a peptide.
(§2) Bacterial lysis assay. Bacterial lysis assays were conducted in a manner similar to that described previously (Lehrer, R. I., M. E. Selsted, D. Szklarek, and F. J. 1983. Infect. Immun. 42: 10-4, 1983; Miller, M. A., R. F. Garry, J. M. Jaynes, and R. C. Montelaro, AIDS Res Hum Retroviruses 7: 511-519, 1991). Bacterial suspensions were cultured in Luria-Bertani Broth to mid-log growth phase and washed by two cycles of centrifugation and suspension in 10 mM phosphate buffer. The Abs600 of the suspension was adjusted with 10 mM phosphate buffer such that, upon dilution, 5-10×10^5 cfu/mL would be treated in the assay. Bacteria were incubated for 1 h with two-fold dilutions of peptides (100 μM to 100 nM) in 96-well plates using 10 mM phosphate buffer, pH 7.2, as a diluent. Ten-fold dilutions of bacteria were performed to 1:1000; a 100 μl aliquot from each condition was spread on the surface of tryptic soy agar plates (Difco, Detroit, Mich.) which were incubated overnight. Colonies of surviving bacteria (cfu, colony-forming units) were counted and compared to untreated controls to determine the amount of peptide-induced killing under each condition. Log killing is defined as the log of the ratio of cfu present before and after treatment with peptide. The minimal bactericidal concentration, MBC, is the peptide concentration at which 99.9% (three log) killing is achieved (Pearson et al., Antimicrob. Agents Chemother. 18: 699-708, 1980).
(§3) A limitation of many host-derived antimicrobial peptides is their decreased activity at physiologic (150 mM) NaCl concentration. See Friedrich et al., Antimicrobial Agents and Chemotherapy 43:1542-1548. The peptides WLSA-5 (SEQ ID NO:3) and LL37 were tested against the two index strains at physiologic NaCl. […] The activity of eLLPs and LBUs of this invention were compared to an expanded list of clinical bacterial isolates. These are summarized in Table 2 by comparing their MBCs in phosphate buffer alone (low salt) and phosphate buffer containing 150 mM NaCl (physiologic conditions). Inspection of this table would lead one skilled in the art to conclude that the activity of eLLPs and LBUs compare favorably to the host derived antimicrobial peptides as it relates to the spectrum and potency of antimicrobial activity.

[5] = test system: Staphylococcus aureus; experiment: Bacterial lysis (broth dilution) assay, MBC; assay type: cell-based
From the text: as §1, §2, §3

[6] = test system: Methicillin Resistant S. aureus; assay type: cell-based, Staphylococcus aureus; conditions: 0 mM NaCl (phosphate buffer, low salt)
From the text: as §1
Bacterial lysis assay. Bacterial lysis assays were conducted in a manner similar to that described previously (Lehrer, R. I., M. E. Selsted, D. Szklarek, and F. J. 1983. Infect. Immun. 42: 10-4, 1983; Miller, M. A., R. F. Garry, J. M. Jaynes, and R. C. Montelaro, AIDS Res Hum Retroviruses 7: 511-519, 1991). Bacterial suspensions were cultured in Luria-Bertani Broth to mid-log growth phase and washed by two cycles of centrifugation and suspension in 10 mM phosphate buffer. […] Colonies of surviving bacteria (cfu, colony-forming units) were counted and compared to untreated controls to determine the amount of peptide-induced killing under each condition. […]

[7] = Rabbit joint model of septic arthritis; assay type: in vivo, New Zealand white rabbit; conditions: peptide administered alone, all animal experiments
From the text: We have extended these findings to a septic arthritis animal model. In this study joint sepsis was induced by inoculating one knee of a 2.5 Kg New Zealand white rabbit with 1×10^5 colony forming units of a clinical S. aureus isolate, a strain resistant to penicillin but sensitive to methicillin, cephalosporins, and clindamycin. Using this model, symptoms of septic arthritis (e.g., degradation of the synovium) were monitored and the ability of antimicrobial agents to limit the degeneration of the joint post-infection can be assessed. In this application the bacterial infection is allowed to establish for 1 h. At this point the joint was accessed and increasing concentrations of LSA-5 (SEQ ID NO:2) (0, 50, 100, and 200 μM) in phosphate buffer (PB) was administered intraarticularly. The concentration of bacteria associated with joint fluid was established at time 0 and 1 h post LSA-5 (SEQ ID NO:2) instillation by plating dilutions of the synovial fluid on LB agar.
This was compared with multiple injections of a standard 0.35% neomycin or a combination of neomycin and LSA-5 (SEQ ID NO:2). Administration of each of these formulations was performed intraarticularly at time 0,1, and 2 h.

[8] = 0 mM NaCl (phosphate buffer, low salt)

CC[C@H](C)[C@H](NC(=O)[C@H](C)NC(=O)[C@H](CCCNC(=N)N)NC(=O)[C@H](CS)NC(=O)[C@H](C)NC(=O)CNC(=O)[C@H](CCC(N)=O)NC(=O)[C@@H](NC(=O)[C@@H](NC(=O)[C@H](CCC(=O)O)NC(=O)[C@@H](NC(=O)[C@@H](NC(=O)[C@@H](N)CCCNC(=N)N)C(C)C)[C@@H](C)CC)C(C)C)C(C)C)C(=O)N[C@@H](CCCNC(=N)N)C(=O)N[C@@H](Cc1c[nH]cn1)C(=O)N[C@H](C(=O)N1CCC[C@H]1C(=O)N[C@@H](CCCNC(=N)N)C(=O)N[C@@H](CCCNC(=N)N)C(=O)N[C@H](C(=O)N[C@@H](CCCNC(=N)N)C(=O)N[C@@H](CCC(N)=O)C(=O)NCC(=O)N[C@@H](CC(C)C)C(=O)N[C@@H](CCC(=O)O)C(=O)N[C@@H](CCCNC(=N)N)C(=O)N[C@H](C(=O)N[C@@H](CC(C)C)C(=O)O)[C@@H](C)CC)[C@@H](C)CC)[C@@H](C)CC [LLP1] (H-RVIEVVQGACRAIRHIPRRIRQGLERIL-OH; N-terminus and C-terminus assumed)
calmodulin binding affinity [1]: near nanomolar affinity | time to nearly sterilize suspension [2]: ≤ 60 s | antibacterial activity compared with magainin-2 [3]: equal to, or more potent than magainin-2

CC[C@H](C)[C@H](NC(=O)[C@H](C)NC(=O)[C@H](CCCNC(=N)N)NC(=O)[C@H](CS)NC(=O)[C@H](C)NC(=O)[C@H](CCCNC(=N)N)NC(=O)[C@H](CCC(N)=O)NC(=O)[C@@H](NC(=O)[C@@H](NC(=O)[C@H](CCCNC(=N)N)NC(=O)[C@@H](NC(=O)[C@@H](NC(=O)[C@@H](N)CCCNC(=N)N)C(C)C)[C@@H](C)CC)C(C)C)C(C)C)C(=O)N[C@@H](CCCNC(=N)N)C(=O)N[C@@H](Cc1c[nH]cn1)C(=O)N[C@H](C(=O)N[C@H](C(=O)N[C@@H](CCCNC(=N)N)C(=O)N[C@@H](CCCNC(=N)N)C(=O)N[C@H](C(=O)N[C@@H](CCCNC(=N)N)C(=O)N[C@@H](CCC(N)=O)C(=O)NCC(=O)N[C@@H](CC(C)C)C(=O)N[C@@H](CCCNC(=N)N)C(=O)N[C@@H](CCCNC(=N)N)C(=O)N[C@H](C(=O)N[C@@H](CC(C)C)C(=O)N[C@@H](CCCNC(=N)N)C(=O)N[C@H](C(=O)N[C@H](C(=O)O)C(C)C)C(C)C)[C@@H](C)CC)[C@@H](C)CC)C(C)C)[C@@H](C)CC [LSA-5] (H-RVIRVVQRACRAIRHIVRRIRQGLRRILRVV-OH)
MBC [4, 8]: 0.8 µM | MBC ([4]; 150 mM NaCl (physiologic)): 0.8 µM (≈ 3.06 µg/mL) | MBC [5, 8]: 1 µM | MBC ([5]; 150 mM NaCl (physiologic)): 1 µM (≈ 3.82 µg/mL) | MBC [6]: 0.15 µM | adverse toxicity [7]: no adverse toxicity was observed
